According to ChEMBL document CHEMBL1201862, “PubChem BioAssay data set” (2004):
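48-hour exposure; five concentrations; linearly interpolated endpoints. GI50 marks 50% less growth.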 Active and inactive are the calls of the source. Cut-off read from the data, not from the text of the source: active = GI50 up to about 1.1 µM and inactive = higher.

What was measured:
Experiment in all cases: NCI-60 cell line screen, 48 h
786-0 = system: 786-0
CAKI-1 = system: CAKI-1
HOP-92 = system: HOP-92
HT-29 = system: HT-29
IGROV-1 = system: IGROV-1
KM12 = system: KM12
LOX IMVI = system: LOX IMVI
MOLT-4 = system: MOLT-4
Malme-3M = system: Malme-3M
NCI-H226 = system: NCI-H226
NCI-H460 = system: NCI-H460
NCI-H522 = system: NCI-H522
OVCAR-3 = system: OVCAR-3
SF-539 = system: SF-539
SNB-75 = system: SNB-75
SR = system: SR
UACC-62 = system: UACC-62
UO-31 = system: UO-31

O=c1c2cccnc2ncn1CCCN1CCCCC1
GI50 (786-0): > 100 µM (inactive) | GI50 (CAKI-1): > 100 µM (inactive) | GI50 (HOP-92): > 100 µM (inactive) | GI50 (HT-29): > 100 µM (inactive) | GI50 (IGROV-1): > 100 µM (inactive) | GI50 (KM12): > 100 µM (inactive) | GI50 (LOX IMVI): > 100 µM (inactive) | GI50 (MOLT-4): > 100 µM (inactive) | GI50 (Malme-3M): > 100 µM (inactive) | GI50 (NCI-H226): > 100 µM (inactive) | GI50 (NCI-H460): > 100 µM (inactive) | GI50 (NCI-H522): > 100 µM (inactive) | GI50 (OVCAR-3): > 100 µM (inactive) | GI50 (SF-539): > 100 µM (inactive) | GI50 (SNB-75): > 100 µM (inactive) | GI50 (SR): > 100 µM (inactive) | GI50 (UACC-62): > 100 µM (inactive) | GI50 (UO-31): > 100 µM (inactive)

COC(OC)c1cc2c(cc1C=O)OCO2
GI50 (786-0): > 100 µM (inactive) | GI50 (CAKI-1): 34.1 µM (inactive) | GI50 (HOP-92): 80.7 µM (inactive) | GI50 (HT-29): > 100 µM (inactive) | GI50 (IGROV-1): > 100 µM (inactive) | GI50 (KM12): > 100 µM (inactive) | GI50 (MOLT-4): > 100 µM (inactive) | GI50 (Malme-3M): 0.276 µM (active) | GI50 (NCI-H226): > 100 µM (inactive) | GI50 (NCI-H460): > 100 µM (inactive) | GI50 (NCI-H522): > 100 µM (inactive) | GI50 (OVCAR-3): 75.5 µM (inactive) | GI50 (SF-539): > 100 µM (inactive) | GI50 (SNB-75): 21.2 µM (inactive) | GI50 (SR): > 100 µM (inactive) | GI50 (UACC-62): 44 µM (inactive) | GI50 (UO-31): 45.3 µM (inactive)

O=C1CCC2(c3ccc(Cl)cc3)Nc3ccccc3N12 (stereo not drawn)
GI50 (786-0): > 100 µM (inactive) | GI50 (HOP-92): 19.9 µM (inactive) | GI50 (HT-29): > 100 µM (inactive) | GI50 (IGROV-1): > 100 µM (inactive) | GI50 (KM12): > 100 µM (inactive) | GI50 (LOX IMVI): > 100 µM (inactive) | GI50 (MOLT-4): 30.3 µM (inactive) | GI50 (Malme-3M): > 100 µM (inactive) | GI50 (NCI-H226): 67.9 µM (inactive) | GI50 (NCI-H460): > 100 µM (inactive) | GI50 (NCI-H522): 55.5 µM (inactive) | GI50 (SF-539): > 100 µM (inactive) | GI50 (SNB-75): 19.3 µM (inactive) | GI50 (SR): 34.4 µM (inactive) | GI50 (UO-31): 49.7 µM (inactive)

OC(Cn1cncn1)(Cn1cncn1)c1ccc(Cl)cc1Cl
GI50 (786-0): > 100 µM (inactive) | GI50 (CAKI-1): > 100 µM (inactive) | GI50 (HOP-92): > 100 µM (inactive) | GI50 (HT-29): > 100 µM (inactive) | GI50 (IGROV-1): > 100 µM (inactive) | GI50 (KM12): > 100 µM (inactive) | GI50 (LOX IMVI): > 100 µM (inactive) | GI50 (MOLT-4): > 100 µM (inactive) | GI50 (Malme-3M): > 100 µM (inactive) | GI50 (NCI-H226): > 100 µM (inactive) | GI50 (NCI-H460): > 100 µM (inactive) | GI50 (NCI-H522): > 100 µM (inactive) | GI50 (OVCAR-3): > 100 µM (inactive) | GI50 (SF-539): > 100 µM (inactive) | GI50 (SNB-75): > 100 µM (inactive) | GI50 (SR): > 100 µM (inactive) | GI50 (UACC-62): > 100 µM (inactive) | GI50 (UO-31): > 100 µM (inactive)

CCCCCCCCCCCCC(=O)CCCCC(=O)O
GI50 (786-0): 27.2 µM (inactive) | GI50 (CAKI-1): 32.5 µM (inactive) | GI50 (HOP-92): 18.6 µM (inactive) | GI50 (HT-29): 15.8 µM (inactive) | GI50 (IGROV-1): 17.3 µM (inactive) | GI50 (KM12): 15.8 µM (inactive) | GI50 (LOX IMVI): 21 µM (inactive) | GI50 (MOLT-4): 14.6 µM (inactive) | GI50 (Malme-3M): 21.6 µM (inactive) | GI50 (NCI-H226): 22.9 µM (inactive) | GI50 (NCI-H460): 19.4 µM (inactive) | GI50 (NCI-H522): 20.3 µM (inactive) | GI50 (OVCAR-3): 31.8 µM (inactive) | GI50 (SF-539): 17.5 µM (inactive) | GI50 (SNB-75): 23.4 µM (inactive) | GI50 (SR): 19.5 µM (inactive) | GI50 (UACC-62): 17.9 µM (inactive) | GI50 (UO-31): 23.9 µM (inactive)

CCC(C)n1c(C)nc2c1C(=O)c1ccccc1C2=O (stereo not drawn)
GI50 (786-0): 61.2 µM (inactive) | GI50 (HOP-92): 22.1 µM (inactive) | GI50 (HT-29): 40.4 µM (inactive) | GI50 (IGROV-1): 45.1 µM (inactive) | GI50 (KM12): > 100 µM (inactive) | GI50 (LOX IMVI): 23.1 µM (inactive) | GI50 (MOLT-4): 28.1 µM (inactive) | GI50 (Malme-3M): 32.2 µM (inactive) | GI50 (NCI-H226): 61.9 µM (inactive) | GI50 (NCI-H460): 19.3 µM (inactive) | GI50 (NCI-H522): 51.3 µM (inactive) | GI50 (OVCAR-3): 32.5 µM (inactive) | GI50 (SF-539): 32.7 µM (inactive) | GI50 (SNB-75): 42.8 µM (inactive) | GI50 (SR): 47.5 µM (inactive) | GI50 (UACC-62): 28.2 µM (inactive) | GI50 (UO-31): 37.8 µM (inactive)
